# Data as given in ChEMBL document CHEMBL4477227, “Synthesis and antibacterial evaluation of macrocyclic diarylheptanoid derivatives” (Bioorg Med Chem Lett, 2016).
# What was measured:
# [1] = system: Staphylococcus aureus; test: Antibacterial activity against methicillin-resistant Staphylococcus aureus NRS70 by microbroth dilution method; format: functional; details: Staphylococcus aureus, NRS70; read-out: MIC
# [2] = system: Streptococcus pneumoniae; test: Antibacterial activity against Streptococcus pneumoniae R6 by microbroth dilution method; format: functional; details: Streptococcus pneumoniae, R6; read-out: MIC
# [3] = system: Proteus vulgaris; test: Antibacterial activity against Proteus vulgaris ATCC 33420 by microbroth dilution method; format: functional
# [4] = system: Bacillus subtilis; test: Antibacterial activity against Bacillus subtilis ATCC 23857 by microbroth dilution method; format: functional; details: Bacillus subtilis, ATCC 23857; read-out: MIC
# [5] = system: Proteus mirabilis; test: Antibacterial activity against Proteus mirabilis ATCC 25933 by microbroth dilution method; format: functional
# [6] = system: Escherichia coli; test: Antibacterial activity against Escherichia coli K-12 by microbroth dilution method; format: functional
# [7] = system: Klebsiella pneumoniae; test: Antibacterial activity against Klebsiella pneumoniae ATCC 33495 by microbroth dilution method; format: functional
# [8] = system: Staphylococcus aureus; test: Antibacterial activity against methicillin-sensitive Staphylococcus aureus ATCC 29213 by microbroth dilution method; format: functional; details: Staphylococcus aureus, ATCC 29213; read-out: MIC
# [9] = system: Burkholderia cepacia; test: Antibacterial activity against Burkholderia cepacia ATCC 25416 by microbroth dilution method; format: functional
# [10] = system: Bacillus anthracis; test: Antibacterial activity against Bacillus anthracis Sterne 34F2 by microbroth dilution method; format: functional; details: Bacillus anthracis, Sterne 34F2; read-out: MIC
# [11] = system: Escherichia coli; test: Antibacterial activity against Escherichia coli harboring TolC deletion mutant by microbroth dilution method; format: functional; details: Escherichia coli; read-out: MIC
# [12] = system: Mycobacterium tuberculosis; test: Antitubercular activity against Mycobacterium tuberculosis H37Rv by microbroth dilution method; format: functional; details: Mycobacterium tuberculosis, H37Rv; read-out: MIC
# [13] = system: Acinetobacter baumannii; test: Antibacterial activity against Acinetobacter baumannii ATCC 19606 by microbroth dilution method; format: functional, ATCC 19606 = CIP 70.34 = JCM 6841; details: Acinetobacter baumannii, ATCC 19606 = CIP 70.34 = JCM 6841; read-out: MIC
# [14] = system: Enterococcus faecalis; test: Antibacterial activity against Enterococcus faecalis ATCC 33186 by microbroth dilution method; format: functional; details: Enterococcus faecalis, ATCC 33186; read-out: MIC
# [15] = system: Pseudomonas aeruginosa; test: Antibacterial activity against Pseudomonas aeruginosa PAO1 by microbroth dilution method; format: functional
# [16] = system: Streptococcus pyogenes; test: Antibacterial activity against Streptococcus pyogenes ATCC 700294 by microbroth dilution method; format: functional; details: Streptococcus pyogenes, ATCC 700294; read-out: MIC
Compound,MIC [1],MIC [2],MIC [3],MIC [4],MIC [5],MIC [6],MIC [7],MIC [8],MIC [9],MIC [10],MIC [11],MIC [12],MIC [13],MIC [14],MIC [15],MIC [16]
COc1ccc2cc1Oc1cc(ccc1OC)CCC(OC(=O)NCc1ccccc1)CCCC2 (centres undefined),> 100 µg/mL,> 100 µg/mL,> 100 µg/mL,> 100 µg/mL,> 100 µg/mL,> 100 µg/mL,> 100 µg/mL,> 100 µg/mL,> 100 µg/mL,> 100 µg/mL,> 100 µg/mL,> 100 µg/mL,> 100 µg/mL,> 100 µg/mL,> 100 µg/mL,> 100 µg/mL
COc1ccc2cc1Oc1cc(ccc1OC)CCC(NC(=O)/C=C/c1ccc(F)cc1)CCCC2 (centres undefined),> 100 µg/mL,> 100 µg/mL,> 100 µg/mL,> 100 µg/mL,> 100 µg/mL,> 100 µg/mL,> 100 µg/mL,> 100 µg/mL,> 100 µg/mL,> 100 µg/mL,> 100 µg/mL,> 100 µg/mL,> 100 µg/mL,> 100 µg/mL,> 100 µg/mL,> 100 µg/mL
COc1ccc2cc1Oc1cc(ccc1OC)CCC(OC(=O)CCc1ccccc1)CCCC2 (centres undefined),> 100 µg/mL,> 100 µg/mL,> 100 µg/mL,> 100 µg/mL,> 100 µg/mL,> 100 µg/mL,> 100 µg/mL,> 100 µg/mL,> 100 µg/mL,> 100 µg/mL,> 100 µg/mL,> 100 µg/mL,> 100 µg/mL,> 100 µg/mL,> 100 µg/mL,> 100 µg/mL
COc1ccc2cc1Oc1cc(ccc1OC)CCC(OS(=O)(=O)c1ccc(C)cc1)CCCC2 (centres undefined),100 µg/mL,> 100 µg/mL,> 100 µg/mL,> 100 µg/mL,> 100 µg/mL,> 100 µg/mL,> 100 µg/mL,> 100 µg/mL,> 100 µg/mL,> 100 µg/mL,> 100 µg/mL,> 100 µg/mL,> 100 µg/mL,100 µg/mL,> 100 µg/mL,> 100 µg/mL
CCNC1CCCCc2ccc(OC)c(c2)Oc2cc(ccc2OC)CC1 (centres undefined),> 100 µg/mL,> 100 µg/mL,> 100 µg/mL,> 100 µg/mL,> 100 µg/mL,> 100 µg/mL,> 100 µg/mL,> 100 µg/mL,> 100 µg/mL,> 100 µg/mL,> 100 µg/mL,100 µg/mL,> 100 µg/mL,> 100 µg/mL,> 100 µg/mL,> 100 µg/mL
COc1ccc2cc1Oc1cc(ccc1OC)CCC(NC(=O)NCCc1ccc(F)cc1)CCCC2 (centres undefined),> 100 µg/mL,> 100 µg/mL,> 100 µg/mL,> 100 µg/mL,> 100 µg/mL,> 100 µg/mL,> 100 µg/mL,> 100 µg/mL,> 100 µg/mL,> 100 µg/mL,> 100 µg/mL,> 100 µg/mL,> 100 µg/mL,> 100 µg/mL,> 100 µg/mL,> 100 µg/mL
CCN(CC)C1CCCCc2ccc(OC)c(c2)Oc2cc(ccc2OC)CC1 (centres undefined),> 100 µg/mL,> 100 µg/mL,> 100 µg/mL,> 100 µg/mL,> 100 µg/mL,> 100 µg/mL,> 100 µg/mL,> 100 µg/mL,> 100 µg/mL,> 100 µg/mL,> 100 µg/mL,100 µg/mL,> 100 µg/mL,> 100 µg/mL,> 100 µg/mL,> 100 µg/mL
COc1ccc2cc1Oc1cc(ccc1OC)CCC(OC(C)=O)CCCC2 (centres undefined),> 100 µg/mL,> 100 µg/mL,> 100 µg/mL,> 100 µg/mL,> 100 µg/mL,> 100 µg/mL,> 100 µg/mL,> 100 µg/mL,> 100 µg/mL,> 100 µg/mL,12.5 µg/mL,> 100 µg/mL,> 100 µg/mL,> 100 µg/mL,> 100 µg/mL,> 100 µg/mL
Oc1ccc2cc1Oc1cc(ccc1O)CCC(NCc1ccccc1)CCCC2 (centres undefined),> 50 µg/mL,> 50 µg/mL,> 100 µg/mL,> 50 µg/mL,> 100 µg/mL,> 50 µg/mL,> 100 µg/mL,> 50 µg/mL,> 100 µg/mL,> 50 µg/mL,50 µg/mL,100 µg/mL,> 50 µg/mL,> 50 µg/mL,> 100 µg/mL,> 50 µg/mL
COc1ccc2cc1Oc1cc(ccc1OC)CCC(OS(=O)(=O)c1ccc(OC(F)(F)F)cc1)CCCC2 (centres undefined),50 µg/mL,> 100 µg/mL,> 100 µg/mL,> 100 µg/mL,> 100 µg/mL,> 100 µg/mL,> 100 µg/mL,> 100 µg/mL,> 100 µg/mL,100 µg/mL,> 100 µg/mL,> 100 µg/mL,> 100 µg/mL,50 µg/mL,> 100 µg/mL,> 100 µg/mL
COc1ccc2cc1Oc1cc(ccc1OC)CCC(OC(=O)NCCc1ccccc1)CCCC2 (centres undefined),> 100 µg/mL,> 100 µg/mL,> 100 µg/mL,> 100 µg/mL,> 100 µg/mL,> 100 µg/mL,> 100 µg/mL,> 100 µg/mL,> 100 µg/mL,> 100 µg/mL,> 100 µg/mL,> 100 µg/mL,> 100 µg/mL,> 100 µg/mL,> 100 µg/mL,> 100 µg/mL
COc1ccc2cc1Oc1cc(ccc1OC)CCC(NC(=O)NCCc1ccccc1)CCCC2 (centres undefined),> 100 µg/mL,> 100 µg/mL,> 100 µg/mL,> 100 µg/mL,> 100 µg/mL,> 100 µg/mL,> 100 µg/mL,> 100 µg/mL,> 100 µg/mL,> 100 µg/mL,> 100 µg/mL,> 100 µg/mL,> 100 µg/mL,> 100 µg/mL,> 100 µg/mL,> 100 µg/mL
COc1ccc2cc1Oc1cc(ccc1OC)CCC(OS(C)(=O)=O)CCCC2 (centres undefined),> 100 µg/mL,> 100 µg/mL,> 100 µg/mL,> 100 µg/mL,> 100 µg/mL,> 100 µg/mL,> 100 µg/mL,> 100 µg/mL,> 100 µg/mL,> 100 µg/mL,> 100 µg/mL,> 100 µg/mL,> 100 µg/mL,> 100 µg/mL,> 100 µg/mL,> 100 µg/mL
COc1ccc2cc1Oc1cc(ccc1OC)CCC(N1CCN(C)CC1)CCCC2 (centres undefined),50 µg/mL,100 µg/mL,> 100 µg/mL,50 µg/mL,> 100 µg/mL,> 100 µg/mL,> 100 µg/mL,100 µg/mL,> 100 µg/mL,100 µg/mL,50 µg/mL,50 µg/mL,100 µg/mL,100 µg/mL,> 100 µg/mL,> 100 µg/mL
COc1ccc2cc1Oc1cc(ccc1OC)CCC(N(CCO)CCO)CCCC2 (centres undefined),> 100 µg/mL,> 100 µg/mL,> 100 µg/mL,> 100 µg/mL,> 100 µg/mL,> 100 µg/mL,> 100 µg/mL,> 100 µg/mL,> 100 µg/mL,> 100 µg/mL,> 100 µg/mL,> 100 µg/mL,> 100 µg/mL,> 100 µg/mL,> 100 µg/mL,> 100 µg/mL
COc1ccc2cc1Oc1cc(ccc1OC)CCC(NC(=O)CCc1ccccc1)CCCC2 (centres undefined),> 100 µg/mL,> 100 µg/mL,> 100 µg/mL,> 100 µg/mL,> 100 µg/mL,> 100 µg/mL,> 100 µg/mL,> 100 µg/mL,> 100 µg/mL,> 100 µg/mL,> 100 µg/mL,> 100 µg/mL,> 100 µg/mL,> 100 µg/mL,> 100 µg/mL,> 100 µg/mL
COc1ccc2cc1Oc1cc(ccc1OC)CCC(OC(=O)Cc1ccccc1)CCCC2 (centres undefined),> 100 µg/mL,> 100 µg/mL,> 100 µg/mL,> 100 µg/mL,> 100 µg/mL,> 100 µg/mL,> 100 µg/mL,> 100 µg/mL,> 100 µg/mL,> 100 µg/mL,> 100 µg/mL,> 100 µg/mL,> 100 µg/mL,> 100 µg/mL,> 100 µg/mL,> 100 µg/mL
COc1ccc2cc1Oc1cc(ccc1OC)CCC(Nc1ccc(Cl)cc1)CCCC2 (centres undefined),> 100 µg/mL,> 100 µg/mL,> 100 µg/mL,> 100 µg/mL,> 100 µg/mL,> 100 µg/mL,> 100 µg/mL,> 100 µg/mL,> 100 µg/mL,> 100 µg/mL,> 100 µg/mL,> 100 µg/mL,> 100 µg/mL,> 100 µg/mL,> 100 µg/mL,> 100 µg/mL
COc1ccc2cc1Oc1cc(ccc1OC)CCC(OC(=O)Nc1ccc(F)cc1)CCCC2 (centres undefined),25 µg/mL,> 100 µg/mL,> 100 µg/mL,> 100 µg/mL,> 100 µg/mL,> 100 µg/mL,> 100 µg/mL,> 100 µg/mL,> 100 µg/mL,> 100 µg/mL,> 100 µg/mL,> 100 µg/mL,> 100 µg/mL,50 µg/mL,> 100 µg/mL,> 100 µg/mL
